Experimental findings from ChEMBL document CHEMBL1201862, “PubChem BioAssay data set” (2004) are described below.

Molecules are shown by their SMILES.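 These data come from cells grown in 96-well plates and exposed to compound for 48 hours at five concentrations. Here, GI50 denotes the concentration required for 50% inhibition of growth.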 Active and inactive are the calls of the source. Rule as the data show it: active = GI50 up to about 1.1 µM and inactive = higher. Where a SMILES comes first, the peptide text is derived from it.

Test systems include BT-549; CAKI-1; DU-145; HCT-116; Hs-578T; IGROV-1; LOX IMVI; MDA-MB-231; NCI-H23; NCI-H460; OVCAR-3; OVCAR-4; PC-3; SF-295; SK-MEL-5; SK-OV-3; SNB-19; SR; SW-620; UACC-62.
What all share (experiment): inhibition of tumour cell growth, NCI panel, 48 h

`CN(C)C(=S)/N=c1\ssc(=S)n1Cc1cccs1`: the GI50 is 11 µM (inactive) with BT-549; 3.11 µM (inactive) with CAKI-1; 3.24 µM (inactive) in the experiment with DU-145; 3.15 µM (inactive) in the experiment on HCT-116; 1.51 µM (inactive) in the experiment with Hs-578T; 4.11 µM (inactive) in the experiment on IGROV-1. Moreover, the GI50 in the experiment on LOX IMVI was 4.06 µM (inactive); in the experiment with MDA-MB-231, 4.42 µM (inactive); in the experiment with NCI-H23 it was 3.75 µM (inactive); in the experiment with NCI-H460, 3.73 µM (inactive); with OVCAR-3, 1.76 µM (inactive); in the experiment with OVCAR-4, 14.6 µM (inactive). Moreover, the GI50 is 2.4 µM (inactive) in the experiment with PC-3; 1.93 µM (inactive) in the experiment on SF-295; 1.04 µM (active) in the experiment with SK-MEL-5; 3.46 µM (inactive) in the experiment on SK-OV-3; 6.05 µM (inactive) in the experiment on SNB-19; 4.88 µM (inactive) with SR. Besides, the results for the GI50 in the experiment on SW-620 and in the experiment with UACC-62 were 2.07 µM (inactive) and 2.7 µM (inactive), respectively.
As to `Cn1c2ccccc2c2c3c(=O)[nH][nH]c(=O)c3c3c4ccccc4n(C)c3c21`, the GI50 in the experiment on BT-549 was > 100 µM (inactive); with CAKI-1 it was > 100 µM (inactive); in the experiment on DU-145 it was > 100 µM (inactive); in the experiment on HCT-116, 78.3 µM (inactive); in the experiment on Hs-578T it was > 100 µM (inactive); with IGROV-1, > 100 µM (inactive). Further, the GI50 with LOX IMVI was > 100 µM (inactive); in the experiment on MDA-MB-231, > 100 µM (inactive); in the experiment on NCI-H23 it was 12.5 µM (inactive); in the experiment on NCI-H460 it was 16.9 µM (inactive); with OVCAR-3, > 100 µM (inactive); with OVCAR-4, > 64.3 µM (inactive). The GI50 was > 100 µM (inactive) with PC-3; > 100 µM (inactive) with SF-295; > 100 µM (inactive) in the experiment with SK-MEL-5; > 100 µM (inactive) in the experiment on SK-OV-3; > 100 µM (inactive) with SNB-19; < 0.01 µM (active) in the experiment on SR. The GI50 in the experiment with SW-620 and in the experiment with UACC-62 was > 100 µM (inactive) in each case.
Regarding `COc1ccc(NC(=O)C(=O)Cc2nc3ccc(C(=O)c4ccccc4)cc3nc2O)c([N+](=O)[O-])c1`, the GI50 was 26.9 µM (inactive) with BT-549; 14.9 µM (inactive) with CAKI-1; 27.5 µM (inactive) in the experiment with DU-145; 28.1 µM (inactive) in the experiment on HCT-116; > 100 µM (inactive) in the experiment with Hs-578T; 17.6 µM (inactive) with IGROV-1. Further, the GI50 in the experiment with LOX IMVI was 25.2 µM (inactive); in the experiment with MDA-MB-231, 23 µM (inactive); with NCI-H23, 20.5 µM (inactive); in the experiment on NCI-H460, 32.1 µM (inactive); with OVCAR-3, 22.5 µM (inactive); in the experiment with OVCAR-4 it was 43.7 µM (inactive). Besides, the GI50 was 18.5 µM (inactive) with PC-3; 31.8 µM (inactive) in the experiment with SF-295; 22.6 µM (inactive) in the experiment with SK-MEL-5; 52 µM (inactive) with SK-OV-3; 62.8 µM (inactive) with SNB-19; 18.3 µM (inactive) in the experiment on SR. Moreover, the GI50 was 19.1 µM (inactive) in the experiment on SW-620 and 21.3 µM (inactive) with UACC-62.
Regarding `CS(=O)(=O)N1CC(CCl)c2ccc(NO)cc21` (stereo not given), the GI50 was 12 µM (inactive) in the experiment with BT-549; 12.6 µM (inactive) in the experiment with CAKI-1; 6.89 µM (inactive) in the experiment on DU-145; 14.7 µM (inactive) with HCT-116; 23.1 µM (inactive) in the experiment with Hs-578T; 13.6 µM (inactive) with IGROV-1. Also, the GI50 in the experiment with LOX IMVI was 13.3 µM (inactive); in the experiment on MDA-MB-231 it was 15.6 µM (inactive); with NCI-H23, 5.06 µM (inactive); with NCI-H460 it was 14.9 µM (inactive); in the experiment with OVCAR-3, 11.7 µM (inactive); with OVCAR-4 it was 17.5 µM (inactive). In addition, the GI50 in the experiment with PC-3 was 12 µM (inactive); with SF-295, 20 µM (inactive); in the experiment with SK-MEL-5, 12.3 µM (inactive); in the experiment with SK-OV-3, 18.7 µM (inactive); in the experiment with SNB-19, 22.5 µM (inactive); with SR it was 2.3 µM (inactive). The GI50 is 12.6 µM (inactive) in the experiment with SW-620 and 13.6 µM (inactive) with UACC-62.
For `C/C(=N/NC(=S)Nc1cccc(C)c1)c1ccccn1`, the GI50 in the experiment on BT-549 was 3.87 µM (inactive); in the experiment with CAKI-1, < 0.0532 µM (active); in the experiment with DU-145 it was 2.19 µM (inactive); in the experiment with HCT-116 it was < 0.01 µM (active); with Hs-578T, 3.82 µM (inactive); with IGROV-1, < 0.01 µM (active). For the same molecule, the GI50 in the experiment with LOX IMVI is < 0.0121 µM (active); in the experiment on MDA-MB-231, < 0.01 µM (active); with NCI-H23 it was < 0.01 µM (active); in the experiment with NCI-H460 it was 0.284 µM (active); in the experiment with OVCAR-3, < 0.01 µM (active); with OVCAR-4, 1.98 µM (inactive). In addition, the GI50 was < 0.01 µM (active) with PC-3; 0.296 µM (active) in the experiment with SF-295; 0.061 µM (active) with SK-MEL-5; 0.025 µM (active) in the experiment on SK-OV-3; 0.977 µM (active) in the experiment on SNB-19; < 0.01 µM (active) in the experiment with SR. The GI50 in the experiment on SW-620 is < 0.01 µM (active); with UACC-62 it was 0.331 µM (active).
On to `C/C=C/C/C=C/CCC(=O)C1OC1C(N)=O` (stereo not given), for which the GI50 was 12.2 µM (inactive) with BT-549; 16.3 µM (inactive) in the experiment with CAKI-1; 17.5 µM (inactive) in the experiment with DU-145; 15 µM (inactive) with HCT-116; 22.8 µM (inactive) in the experiment with Hs-578T; 16.4 µM (inactive) in the experiment with IGROV-1. The GI50 in the experiment on LOX IMVI was 13.2 µM (inactive); with MDA-MB-231, 16.5 µM (inactive); with NCI-H23, 14.9 µM (inactive); in the experiment with NCI-H460 it was 12.8 µM (inactive); in the experiment with OVCAR-3, 18.7 µM (inactive); with OVCAR-4, 11.6 µM (inactive). In addition, the GI50 in the experiment on PC-3 is 15.4 µM (inactive); with SF-295, 15 µM (inactive); in the experiment on SK-MEL-5, 15 µM (inactive); in the experiment with SK-OV-3, 35.1 µM (inactive); in the experiment with SNB-19, 18.2 µM (inactive); in the experiment with SR, 10.6 µM (inactive). Further, the GI50 was 19.8 µM (inactive) with SW-620 and 15.9 µM (inactive) with UACC-62.
Turning to `CC(=O)c1c(C)cn(S(=O)(=O)NC(=O)Nc2nncs2)c1C`, the GI50 in the experiment on BT-549, in the experiment on CAKI-1, in the experiment with DU-145, in the experiment with HCT-116, with Hs-578T and with IGROV-1 was > 100 µM (inactive) throughout. The GI50 in the experiment on LOX IMVI, in the experiment on MDA-MB-231, in the experiment on NCI-H23, in the experiment with NCI-H460, in the experiment on OVCAR-3 and in the experiment on OVCAR-4 was > 100 µM (inactive) throughout. Moreover, the GI50 with PC-3, in the experiment on SF-295, with SK-MEL-5, in the experiment with SK-OV-3, in the experiment with SNB-19 and in the experiment on SR was > 100 µM (inactive) throughout. Moreover, the GI50 in the experiment on SW-620 and with UACC-62 was > 100 µM (inactive) in each case.
On to `CCCCNC(=S)N/N=C/c1cccc(C)n1`, for which the GI50 in the experiment on BT-549 is 49.4 µM (inactive); with CAKI-1, 33.9 µM (inactive); with DU-145, 83.2 µM (inactive); in the experiment with HCT-116 it was 20.7 µM (inactive); in the experiment with Hs-578T, > 100 µM (inactive); with IGROV-1, 58.3 µM (inactive). The GI50 was 34.9 µM (inactive) in the experiment with LOX IMVI; 35.7 µM (inactive) in the experiment on MDA-MB-231; 59.3 µM (inactive) in the experiment with NCI-H23; 32.4 µM (inactive) in the experiment with NCI-H460; > 100 µM (inactive) with OVCAR-3; 55.1 µM (inactive) with OVCAR-4. The GI50 was 47 µM (inactive) with PC-3; 33.2 µM (inactive) in the experiment on SF-295; 43 µM (inactive) in the experiment on SK-MEL-5; 59.8 µM (inactive) in the experiment on SK-OV-3; 39.3 µM (inactive) in the experiment with SNB-19; 19.5 µM (inactive) with SR. Besides, the GI50 in the experiment on SW-620 is 49.1 µM (inactive); in the experiment with UACC-62 it was 25.6 µM (inactive).
On to `CC(=O)NC(CS)C(=O)NC(CO)C(=O)NC(CO)C(=O)NC(Cc1c[nH]c2ccccc12)C(=O)N1CCCC1C(=O)NC(CO)C(=O)NC(Cc1c[nH]c2ccccc12)C(=O)NC(Cc1c[nH]cn1)C(=O)NC(CO)C(=O)NC(Cc1c[nH]c2ccccc12)C(=O)NCC(=O)NCC(=O)NC(CC(=O)O)C(=O)NC(CCC(N)=O)C(=O)NC(CCCCN)C(=O)NC(Cc1ccccc1)C(=O)NC(CCCNC(=N)N)C(=O)NC(CCCCN)C(N)=O` (stereo not given) (Ac-CSSWPSWHSWGGDQKFRK-NH2; configuration not given here), for which the GI50 with BT-549, with CAKI-1, in the experiment on DU-145, with HCT-116, with Hs-578T and with IGROV-1 was > 25 µM (inactive) in each case. In addition, the GI50 in the experiment on LOX IMVI, in the experiment on MDA-MB-231, with NCI-H23, in the experiment with NCI-H460, in the experiment with OVCAR-3 and in the experiment with OVCAR-4 was > 25 µM (inactive) in each case. Besides, the GI50 with PC-3, in the experiment with SF-295, in the experiment with SK-MEL-5, in the experiment with SK-OV-3, in the experiment on SNB-19 and in the experiment with SR was > 25 µM (inactive) throughout. Also, the GI50 in the experiment with SW-620 and in the experiment on UACC-62 was > 25 µM (inactive) in each case.
As for `O=C([C@H](O)[C@@H](O)c1cccc(Cl)c1)C12CC3CC(CC(C3)C1)C2`, the GI50 in the experiment on BT-549 was 1.87 µM (inactive); in the experiment on CAKI-1, 2.08 µM (inactive); in the experiment on DU-145, 2.25 µM (inactive); in the experiment with HCT-116 it was 1.86 µM (inactive); with Hs-578T, 2.61 µM (inactive); in the experiment on IGROV-1, 1.34 µM (inactive). The GI50 in the experiment with LOX IMVI was 1.22 µM (inactive); in the experiment with MDA-MB-231, 2.12 µM (inactive); with NCI-H23, 1.79 µM (inactive); in the experiment with NCI-H460, 1.85 µM (inactive); in the experiment on OVCAR-3 it was 1.94 µM (inactive); in the experiment on OVCAR-4, 2.4 µM (inactive). In addition, the GI50 with PC-3 is 1.87 µM (inactive); in the experiment on SF-295, 3.15 µM (inactive); in the experiment with SK-MEL-5 it was 4.13 µM (inactive); in the experiment with SK-OV-3, 8.71 µM (inactive); in the experiment with SNB-19, 1.82 µM (inactive); in the experiment with SR, 2.07 µM (inactive). Besides, the GI50 with SW-620 is 2.06 µM (inactive); with UACC-62 it was 1.73 µM (inactive).
